Laboratory results published in ChEMBL document CHEMBL1201862, “PubChem BioAssay data set” (2004).
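48-hour exposure; five concentrations; linearly interpolated endpoints. Here, GI50 denotes the concentration required for 50% inhibition of growth.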 Activity calls are given as the source filed them. Cut-off read from the data, not from the text of the source: active = GI50 up to about 1.1 µM and inactive = higher.

What was measured:
Experiment in all cases: DTP human tumour cell line panel, 48 h
[1] = system: PC-3
[2] = system: UO-31
[3] = system: MCF7
[4] = system: U-251
[5] = system: NCI-H23
[6] = system: NCI/ADR-RES
[7] = system: M14
[8] = system: SNB-75
[9] = system: 786-0
[10] = system: NCI-H522
[11] = system: ACHN
[12] = system: SK-MEL-2
[13] = system: EKVX
[14] = system: MOLT-4
[15] = system: SR
[16] = system: LOX IMVI
[17] = system: SF-268
[18] = system: SNB-19
[19] = system: MDA-MB-435
[20] = system: MDA-N

Row | Structure (SMILES) | GI50 [1] | GI50 [2] | GI50 [3] | GI50 [4] | GI50 [5] | GI50 [6] | GI50 [7] | GI50 [8] | GI50 [9] | GI50 [10] | GI50 [11] | GI50 [12] | GI50 [13] | GI50 [14] | GI50 [15] | GI50 [16] | GI50 [17] | GI50 [18] | GI50 [19] | GI50 [20]
1 | Fc1ccc(Nc2nc(Cl)c3nc[nH]c3n2)cc1Cl | > 100 µM (inactive) | 4.74 µM (inactive) | 98.9 µM (inactive) | 74.6 µM (inactive) | 79.6 µM (inactive) | 37.8 µM (inactive) | > 100 µM (inactive) | 41.4 µM (inactive) | 86.9 µM (inactive) | 43.5 µM (inactive) | 34.9 µM (inactive) | > 100 µM (inactive) | 67.8 µM (inactive) | > 100 µM (inactive) | 86.1 µM (inactive) | 75.3 µM (inactive) | 35.6 µM (inactive) | > 100 µM (inactive) | > 100 µM (inactive) | > 100 µM (inactive)
2 | Cc1nc(C(N)=S)sc1C(=O)C/C(=N/N)C(=O)Nc1cccc(Cl)c1C | > 100 µM (inactive) | > 100 µM (inactive) | > 100 µM (inactive) | > 100 µM (inactive) | > 100 µM (inactive) | > 100 µM (inactive) | > 100 µM (inactive) | > 100 µM (inactive) | > 100 µM (inactive) | > 100 µM (inactive) | > 100 µM (inactive) | > 100 µM (inactive) | > 100 µM (inactive) | > 100 µM (inactive) | > 100 µM (inactive) | > 100 µM (inactive) | > 100 µM (inactive) | > 100 µM (inactive) | > 100 µM (inactive) | > 100 µM (inactive)
3 | CC1=C(CCC(C)CO)O[C@H]2C[C@H]3[C@@H]4CC[C@H]5C[C@@H](O)CC[C@]5(C)[C@H]4CC(=O)[C@]3(C)[C@@H]12 (stereo not given in full) | 5.08 µM (inactive) | 12.4 µM (inactive) | 23.6 µM (inactive) | 18 µM (inactive) | 14.9 µM (inactive) | 9.48 µM (inactive) | 10.6 µM (inactive) | 20.6 µM (inactive) | 20.7 µM (inactive) | 9.62 µM (inactive) | 17.5 µM (inactive) | 11.7 µM (inactive) | 29.9 µM (inactive) | 3.61 µM (inactive) | 13.4 µM (inactive) | 12.7 µM (inactive) | 19.1 µM (inactive) | 22.3 µM (inactive) | 18.9 µM (inactive) | 15.6 µM (inactive)
4 | Cc1ccc(/N=N/c2ccc(O)c(CN(C)C)c2)cc1C | 40.9 µM (inactive) | 8.3 µM (inactive) | 35.3 µM (inactive) | 34.6 µM (inactive) | 70.3 µM (inactive) | 16 µM (inactive) | 33 µM (inactive) | 21.9 µM (inactive) | 34.4 µM (inactive) | 10.6 µM (inactive) | 17.6 µM (inactive) | 16.2 µM (inactive) | 20.6 µM (inactive) | 16.6 µM (inactive) | 27.2 µM (inactive) | 10.5 µM (inactive) | 27.9 µM (inactive) | 34.2 µM (inactive) | 18.7 µM (inactive) | 38.9 µM (inactive)
5 | CCCCCCCN(CCCCCCC)CC(O)c1cc2ccccc2c2cc(Br)ccc12 (stereo not given) | 24.2 µM (inactive) | 57.1 µM (inactive) | 12.7 µM (inactive) | 18.3 µM (inactive) | 36 µM (inactive) | > 100 µM (inactive) | 22.6 µM (inactive) | 34.9 µM (inactive) | 31.6 µM (inactive) | 28.7 µM (inactive) | 24.5 µM (inactive) | 33.1 µM (inactive) | 25.8 µM (inactive) | 35.1 µM (inactive) | 22.6 µM (inactive) | 14.2 µM (inactive) | 19 µM (inactive) | 38.7 µM (inactive) | 33.1 µM (inactive) | 28.5 µM (inactive)
6 | CCOC(=O)C1(Cc2ccc3c(c2)CCC3)Cc2cc3c(cc2C1)CCC3 | 21.9 µM (inactive) | 49 µM (inactive) | 16.4 µM (inactive) | 32.3 µM (inactive) | 35.7 µM (inactive) | 78.5 µM (inactive) | 21.5 µM (inactive) | 75.5 µM (inactive) | 29.6 µM (inactive) | 25.1 µM (inactive) | 33.7 µM (inactive) | 32.6 µM (inactive) | 47.6 µM (inactive) | 11.5 µM (inactive) | 23.9 µM (inactive) | 15.4 µM (inactive) | 53.2 µM (inactive) | 36.7 µM (inactive) | 35.7 µM (inactive) | 37 µM (inactive)
7 | COc1cc(C2C3=C(COC3=O)Oc3cc4c(cc32)OCO4)ccc1O (stereo not given) | 0.167 µM (active) | 0.327 µM (active) | 0.277 µM (active) | 0.467 µM (active) | 0.65 µM (active) | 0.242 µM (active) | 0.439 µM (active) | 0.225 µM (active) | 0.481 µM (active) | 0.0792 µM (active) | 0.653 µM (active) | 0.543 µM (active) | 1.05 µM (active) | 0.543 µM (active) | 0.252 µM (active) | 0.601 µM (active) | 2.07 µM (inactive) | 0.333 µM (active) | 0.0552 µM (active) | 0.11 µM (active)
8 | COc1ccc(Nc2nc3ccc(C(F)(F)F)cc3nc2C(=O)O)cc1OC | 26.5 µM (inactive) | 19.2 µM (inactive) | 33.9 µM (inactive) | 27.4 µM (inactive) | 24.4 µM (inactive) | 20.2 µM (inactive) | – | 35.8 µM (inactive) | 35 µM (inactive) | 25.8 µM (inactive) | 35.2 µM (inactive) | 17.2 µM (inactive) | 36.2 µM (inactive) | 16.1 µM (inactive) | 18.9 µM (inactive) | 28.8 µM (inactive) | 34.1 µM (inactive) | 23.6 µM (inactive) | 32.7 µM (inactive) | 34.7 µM (inactive)
9 | C=C1CC2(C[C@@H](c3ccccc3)O[C@@H](c3ccccc3)C2)OC1=O (stereo not given in full) | 3.5 µM (inactive) | 6.24 µM (inactive) | 2.13 µM (inactive) | 15.4 µM (inactive) | 2.64 µM (inactive) | 3.06 µM (inactive) | 1.77 µM (inactive) | 4.65 µM (inactive) | 2.59 µM (inactive) | 1.48 µM (inactive) | 2.88 µM (inactive) | 3.98 µM (inactive) | 13 µM (inactive) | 1.95 µM (inactive) | 2.3 µM (inactive) | 1.25 µM (inactive) | 7.31 µM (inactive) | 15.2 µM (inactive) | 2.99 µM (inactive) | 2.28 µM (inactive)
10 | CCCCCCCCCCCCOCCCCCCCCC/C=C/c1ccc2c(c1)OCCOCCOCCOCCO2 | 17.9 µM (inactive) | 19.1 µM (inactive) | 16.3 µM (inactive) | 22.8 µM (inactive) | 15.6 µM (inactive) | 17.5 µM (inactive) | 25.4 µM (inactive) | 16.4 µM (inactive) | 13.6 µM (inactive) | 13.2 µM (inactive) | 19.1 µM (inactive) | 15.8 µM (inactive) | 26.6 µM (inactive) | 28.7 µM (inactive) | 21 µM (inactive) | 19.3 µM (inactive) | 22.8 µM (inactive) | 33.3 µM (inactive) | 18.3 µM (inactive) | 18.5 µM (inactive)
11 | Cc1cc(C)n(C2OC(CO)C(O)C(O)C2O)c(=S)c1C#N (stereo not given) | > 100 µM (inactive) | > 100 µM (inactive) | > 100 µM (inactive) | > 100 µM (inactive) | > 100 µM (inactive) | > 100 µM (inactive) | > 100 µM (inactive) | > 100 µM (inactive) | > 100 µM (inactive) | > 100 µM (inactive) | > 100 µM (inactive) | > 100 µM (inactive) | – | > 100 µM (inactive) | > 100 µM (inactive) | > 100 µM (inactive) | > 100 µM (inactive) | > 100 µM (inactive) | > 100 µM (inactive) | > 100 µM (inactive)
12 | NC(=O)c1csc(C2OC(CO)C(O)C2O)n1 (stereo not given) | 4.9 µM (inactive) | 53.2 µM (inactive) | 31.4 µM (inactive) | 8.39 µM (inactive) | 60.1 µM (inactive) | 57 µM (inactive) | 6.84 µM (inactive) | – | 21.8 µM (inactive) | 50.1 µM (inactive) | 44.6 µM (inactive) | 2340 µM (inactive) | 543 µM (inactive) | 5.56 µM (inactive) | > 31.6 µM (inactive) | 267 µM (inactive) | 57.5 µM (inactive) | 38.3 µM (inactive) | 57.9 µM (inactive) | 35.1 µM (inactive)
13 | O=C(O)c1cscc1Cc1cccs1 | > 100 µM (inactive) | – | > 100 µM (inactive) | > 100 µM (inactive) | > 100 µM (inactive) | > 100 µM (inactive) | > 100 µM (inactive) | 57.8 µM (inactive) | > 100 µM (inactive) | > 100 µM (inactive) | > 100 µM (inactive) | > 100 µM (inactive) | > 100 µM (inactive) | > 100 µM (inactive) | > 100 µM (inactive) | > 100 µM (inactive) | > 100 µM (inactive) | > 100 µM (inactive) | > 100 µM (inactive) | > 100 µM (inactive)
14 | O=S(=O)(NC1OCCCC1I)c1ccccc1 (stereo not given) | > 100 µM (inactive) | > 100 µM (inactive) | > 100 µM (inactive) | > 100 µM (inactive) | > 100 µM (inactive) | > 100 µM (inactive) | – | > 100 µM (inactive) | > 100 µM (inactive) | > 100 µM (inactive) | > 100 µM (inactive) | > 100 µM (inactive) | > 100 µM (inactive) | > 100 µM (inactive) | > 100 µM (inactive) | 84.9 µM (inactive) | > 100 µM (inactive) | > 100 µM (inactive) | > 100 µM (inactive) | > 100 µM (inactive)
